Measured values taken from patent US6756210B2, “Linoleic acid diol and glucuronide conjugate levels as diagnostic markers of disorders of abnormal regulation of cytochrome P450 metabolism of unsaturated fatty acids” (The Regents of the University of California, priority 2001, dated 2004).
Where “and” joins values, the source holds several entries; their conditions need not be identical. Identical values can stand only once. Like-named read-outs stand apart in the source and are kept apart here.

Experiments:
SHR = experiment: Systolic blood pressure in SHR (tail cuff); assay type: in vivo, rat; settings: 6 hr after single dose (3 mg/kg DCU or equimolar)
Text: (§1) Animals. Male SHR and WKY rats 3-13 wks of age were purchased from Charles River Laboratories (Wilmington, Mass.) and housed in a controlled environment with 12 hr light/dark cycles and fed standard laboratory chow for 3 days before euthanasia. All animal use was approved by the University of California San Francisco Committee on Animal Research and followed the National Institutes of Health guidenlines for the care and use of laboratory animals. For isolation of kidney subcellular fractions, rats were anesthetized with methoxyflurane, the abdominal cavities were opened, and the kidneys were perfused with ice-cold saline. Perfused kidneys were rapidly removed, the cortex and medulla dissected out and immersed in liquid nitrogen. All tissue was stored at −80° C. until preparation of microsomes. In some cases WKY and SHR rats were housed in metabolic cages for up to three days and urine was collected over triphenylphosphine in 24 hr intervals. The urine volume was noted and aliquots were stored at −80° C. prior to extraction and quantitation of DHETs and EETs. […] Systolic blood pressure was measured at room temperature by a photoelectric tail cuff system (Model 179, IITC, Inc., Woodland Hills, Calif.) for up to four days following the dose of inhibitor. Blood pressures are reported as the average of three separate readings over a 30 min period. […]

recombinant rat mEH = biological target: T1, recombinant rat mEH (Rattus norvegicus, UniProt P07687); experiment: Inhibition of recombinant rat mEH; assay type: biochemical
T1 sequence (P07687 1-455): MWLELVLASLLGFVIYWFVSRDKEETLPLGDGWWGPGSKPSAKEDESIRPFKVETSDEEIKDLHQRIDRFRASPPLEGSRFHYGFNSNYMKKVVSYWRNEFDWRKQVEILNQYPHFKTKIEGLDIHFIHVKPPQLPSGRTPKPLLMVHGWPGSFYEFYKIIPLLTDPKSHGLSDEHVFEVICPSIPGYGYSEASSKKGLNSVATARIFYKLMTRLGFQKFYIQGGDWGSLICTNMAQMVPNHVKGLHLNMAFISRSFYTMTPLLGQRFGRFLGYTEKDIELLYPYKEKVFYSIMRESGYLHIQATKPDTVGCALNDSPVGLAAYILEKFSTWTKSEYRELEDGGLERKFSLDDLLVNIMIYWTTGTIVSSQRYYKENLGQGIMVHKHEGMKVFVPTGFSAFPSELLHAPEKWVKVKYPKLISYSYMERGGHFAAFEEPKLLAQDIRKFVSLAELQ
Protocol: (§2) The micosomal enzyme plays a significant role in the metabolism of xenobiotics such as polyaromatic toxicants. Additionally, polymorphism studies have underlined a potential role of this enzyme in relation to several diseases, such as emphysema, spontaneous abortion and several forms of cancer. Inhibition of recombinant rat and human mEH can be obtained using primary ureas, amides, and amines. For example, elaidamide, has a K1 of 70 nM for recombinant rat mEH.

[1] = system: insect cell culture expressing rat mEH; experiment: Insect cell culture expressing rat mEH, toxicity of epoxide-containing xenobiotics; assay type: cell-based
Protocol: as §2

Human sEH (HsEH) = biological target: T2, Human sEH (HsEH) (Homo sapiens, UniProt P34913); experiment: Inhibition of recombinant human sEH (HsEH); assay type: biochemical; settings: HsEH 0.26 μM
T2 sequence (P34913 1-555): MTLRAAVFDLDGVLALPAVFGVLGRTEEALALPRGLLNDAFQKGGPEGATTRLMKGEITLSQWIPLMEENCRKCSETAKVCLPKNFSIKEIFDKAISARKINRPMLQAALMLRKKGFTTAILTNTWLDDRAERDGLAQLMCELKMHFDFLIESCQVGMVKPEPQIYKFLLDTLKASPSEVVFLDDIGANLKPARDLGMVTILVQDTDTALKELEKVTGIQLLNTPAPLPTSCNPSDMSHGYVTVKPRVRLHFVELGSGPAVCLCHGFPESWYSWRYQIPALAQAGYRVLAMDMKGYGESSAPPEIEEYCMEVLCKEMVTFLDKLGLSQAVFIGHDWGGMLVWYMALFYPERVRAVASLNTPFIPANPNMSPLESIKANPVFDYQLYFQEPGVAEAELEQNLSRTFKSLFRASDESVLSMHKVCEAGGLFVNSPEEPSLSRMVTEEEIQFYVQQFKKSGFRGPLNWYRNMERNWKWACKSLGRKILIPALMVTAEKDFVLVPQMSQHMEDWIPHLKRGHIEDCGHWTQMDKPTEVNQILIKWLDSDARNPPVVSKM

[2] = biological target: T3, recombinant mouse sEH (MsEH) (Mus musculus, UniProt P34914); experiment: Inhibition of recombinant mouse sEH (MsEH); assay type: biochemical
T3 sequence (P34914 1-554): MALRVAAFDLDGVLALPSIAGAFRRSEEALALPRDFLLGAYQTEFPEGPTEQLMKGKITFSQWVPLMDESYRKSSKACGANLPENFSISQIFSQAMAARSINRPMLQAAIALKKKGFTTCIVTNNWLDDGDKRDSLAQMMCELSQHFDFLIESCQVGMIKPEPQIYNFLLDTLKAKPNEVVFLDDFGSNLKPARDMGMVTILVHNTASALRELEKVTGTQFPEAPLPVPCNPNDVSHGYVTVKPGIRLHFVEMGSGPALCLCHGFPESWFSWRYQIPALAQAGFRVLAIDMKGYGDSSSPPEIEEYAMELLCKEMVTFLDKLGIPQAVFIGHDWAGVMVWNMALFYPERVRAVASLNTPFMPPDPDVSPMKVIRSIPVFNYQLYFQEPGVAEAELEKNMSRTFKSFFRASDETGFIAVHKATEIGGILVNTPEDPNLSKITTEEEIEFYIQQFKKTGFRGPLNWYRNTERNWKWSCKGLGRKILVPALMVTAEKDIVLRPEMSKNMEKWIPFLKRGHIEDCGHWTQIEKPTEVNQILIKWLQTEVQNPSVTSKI

mEH = biological target: T4, mEH (Rattus norvegicus, UniProt P07687); settings: previous studies, Morisseau 1999; cited from earlier work
T4 sequence (P07687 1-455): T1 sequence (P07687 1-455)

[3] = system: CYP epoxygenase or -hydroxylase; experiment: Renal microsomal arachidonic acid metabolism (CYP epoxygenase, hydroxylase); assay type: biochemical, rat; design: dose or concentration left out as unconfirmed
Protocol: Renal microsomal arachidonic acid metabolism. Microsomes, cytosol, and S9 fractions were prepared from the renal cortex or outer medulla samples from a single animal as described previously (Kroetz, D. L. et al. Mol Pharmacol 52, 362-372 (1997), Su, P. et al. Am J Physiol 275, R426-438 (1998)). Reaction conditions for the in vitro determination of arachidonic acid epoxygenase activity, metabolite extraction and HPLC analysis were described in detail elsewhere (Su, P. et al. Am J Physiol 275, R426-438 (1998)).

WKY rats = experiment: Systolic blood pressure in WKY rats (tail cuff); assay type: in vivo, rat; settings: single 3 mg/kg dose
Text: as §1

[4] = Table 1, MsEH 0.13 μM, read-out: Mouse sEH IC50
[5] = Table 2, MsEH 0.13 μM, read-out: Mouse sEH IC50

IC50 (Human sEH (HsEH); Table 1)	IC50 [2, 4]	Compound	also measured
		CCCCCCCCCCCCNC(=O)NC1CCCCC1 [N-cyclohexyl-N′-dodecylurea]	decrease in systolic blood pressure (SHR): 12±2 mm Hg and 12 mm Hg
		CCCCCCCC/C=C/CCCCCCCC(N)=O [elaidamide]	inhibition kinetics with mEH (recombinant rat mEH; non-covalent complex): apparent mix of competitive and non-competitive inhibition kinetics; Ki (recombinant rat mEH; read-out: K1 for recombinant rat mEH): 70 nM; effect on toxicity of epoxide-containing xenobiotics [1]: enhances the toxicity effects
5000 ± 100 nM	600 ± 60 nM	CCC(C)NC(=O)NC1CCCCC1 (centres unmarked) [compound 479]	
		CC(=O)C1OC1c1ccc([N+](=O)[O-])cc1 (racemic) [R=4-NO2—C6H4, R′=CH3, X—Y=C═O, ±]	IC50 (Human sEH (HsEH); Table 2): 269000 ± 5000 nM; IC50 [2, 5]: 163000 ± 11000 nM
100 ± 10 nM	60 ± 10 nM	CC(C)c1ccc(NC(=O)NCC2CCCCC2)cc1 [compound 180]	
		[O-][S+](c1ccccc1)C1OC1c1ccccc1 (racemic) [R=C6H5, R′=C6H5, X—Y=S═O, ±]	IC50 (Human sEH (HsEH); Table 2): 310 ± 20 nM; IC50 [2, 5]: 2300 ± 400 nM
2500 ± 30 nM	730 ± 80 nM	O=C(NCc1ccncc1)NC1CCCCC1 [compound 188]	
		CC(O)C1OC1c1ccc([N+](=O)[O-])cc1 (racemic) [R=4-NO2—C6H4, R′=CH3, X—Y=CH—OH, ±]	IC50 (Human sEH (HsEH); Table 2): 39000 ± 1000 nM; IC50 [2, 5]: 6500 ± 200 nM
1430 ± 30 nM	850 ± 10 nM	CCCCCCNC(=O)Nc1ccccc1 [compound 157]	
3770 ± 30 nM	390 ± 20 nM	CCOC(CCCNC(=O)Nc1cccc(Cl)c1)OCC [compound 167]	
1900 ± 100 nM	50 ± 10 nM	O=C(NCc1ccccc1)NC1CCCCC1 [compound 270]	
570 ± 10 nM	1000 ± 100 nM	CCCCCCNC(=O)Nc1ccc2ccccc2c1 [compound 143]	
110 ± 10 nM	170 ± 10 nM	O=C(Nc1ccc(Br)cc1)NC1CCCCC1 [compound 65]	
		[O-][S+](c1ccccc1)C1OC1c1ccc(-c2ccccc2)cc1 (racemic) [R=4-C6H5—C6H4, R′=C6H5, X—Y=S═O, ±]	IC50 (Human sEH (HsEH); Table 2): 70000 ± 3000 nM; IC50 [2, 5]: 73000 ± 5000 nM
5900 ± 300 nM	1060 ± 70 nM	CCCCCCCCNC(=O)NC(C)C [compound 183]	
230 ± 10 nM	710 ± 40 nM	COc1ccc(NC(=O)NC2CCCCC2)cc1 [compound 67]	
1700 ± 400 nM	380 ± 40 nM	CCCCCCCCCNC(=O)NCCC [compound 429]	
		ON=C(c1ccccc1)C1OC1c1ccc(-c2ccccc2)cc1 (racemic) [R=4-C6H5—C6H4, R′=C6H5, X—Y=C═NOH, ±]	IC50 (Human sEH (HsEH); Table 2): 35000 ± 1000 nM; IC50 [2, 5]: 42000 ± 3000 nM
100 ± 10 nM	60 ± 10 nM	O=C(NCC1CCCCC1)Nc1cccc(Cl)c1 [compound 179]	
17800 ± 700 nM	700 ± 100 nM	O=C(NCCCN1CCOCC1)NC1CCCCC1 [compound 377]	
300 ± 10 nM	120 ± 10 nM	CCCCCCCCCCNC(=O)Nc1cccc(Cl)c1 [compound 172]	

IC50 (Human sEH (HsEH); Table 1)	IC50 [2, 4]	Compound	also measured
		O=C(NC1CCCCC1)NC1CCCCC1 [DCU, N,N′-dicyclohexylurea]	inhibition of mEH (mEH): does not inhibit mEH; effect on CYP epoxygenase or -hydroxylase activity [3]: no effect; effect on blood pressure in WKY (WKY rats): unaffected
		OC(c1ccccc1)C1OC1c1ccc(F)cc1 (racemic) [R=4-F-C6H4, R′=C6H5, X—Y=CH—OH, ±]	IC50 (Human sEH (HsEH); Table 2): 18000 ± 2000 nM; IC50 [2, 5]: 72000 ± 16000 nM
1000 ± 200 nM	50 ± 10 nM	COc1ccc(CCNC(=O)NC2CCCCC2)cc1OC [compound 384]	
200 ± 20 nM	70 ± 20 nM	O=C(NCCc1ccc(Cl)cc1)NC1CCCCC1 [compound 361]	
110 ± 10 nM	180 ± 10 nM	CC(C)(C)CC(C)(C)NC(=O)NC1C2CC3CC(C2)CC1C3 (centres unmarked) [compound 375]	
100 ± 10 nM	50 ± 10 nM	O=C(NCCC1CCCCC1)NC1CCCCC1 [compound 360]	
120 ± 10 nM	60 ± 10 nM	CCCCCCCCNC(=O)NC1CCCCC1 [compound 168]	
100 ± 10 nM	60 ± 10 nM	O=C(NC1CCCCC1)OC1C2CC3CC(C2)CC1C3 (centres unmarked) [compound 260]	
1120 ± 30 nM	700 ± 200 nM	O=C(O)CCCCCCCCCCCNC(=O)Nc1ccc2ccccc2c1 [compound 283]	
100 ± 10 nM	90 ± 10 nM	CCCCCCNC(=O)Nc1ccc(C(C)C)cc1 [compound 287]	
1500 ± 100 nM	50 ± 10 nM	Nc1ccc(CNC(=O)NC2CCCCC2)cc1 [compound 379]	
220 ± 20 nM	120 ± 10 nM	C=C(C)CCOC(=O)NC1CCCCC1 [compound 277]	
160 ± 20 nM	60 ± 10 nM	O=C(NCCc1ccccc1)NC1CCCCC1 [compound 36]	
23000 ± 4000 nM	800 ± 100 nM	CCCCCCCCCCCCNC(=O)NC1CCC1 [compound 504]	
100 ± 40 nM	50 ± 10 nM	O=C(NC(=O)c1ccc(Cl)cc1)NC1CCCCC1 [compound 257]	
100 ± 20 nM	50 ± 10 nM	O=C(NC1CCCCC1)OCc1cccc2ccccc12 [compound 262]	
100 ± 10 nM	50 ± 10 nM	O=C(Nc1ccc(Oc2ccccc2)cc1)NC1CCCCC1 [compound 140]	
100 ± 10 nM	50 ± 100 nM	O=C(Nc1nnn[nH]1)NC1CCCCC1 [compound 533]	
		O=C(c1ccccc1)C1OC1c1ccccc1 (racemic) [R=C6H5, R′=C6H5, X—Y=C═O, ±]	IC50 (Human sEH (HsEH); Table 2): 300 ± 100 nM; IC50 [2, 5]: 2900 ± 300 nM
720 ± 20 nM	90 ± 10 nM	CCCCCCCCNC(=O)NCCCCC [compound 125]	

Compound	IC50 (Human sEH (HsEH); Table 1)	IC50 [2, 4]	also measured
CCCCCCCCNC(=O)Nc1ccccc1 [compound 151]	580 ± 10 nM		IC50 [2]: 2290 ± 30 nM
CCCCCCCCCCCCNC(=O)NC1CCCCC1 [compound 297]	100 ± 10 nM	50 ± 10 nM	
O=C(NC1CCCCC1)Oc1ccccc1CO [compound 224]	320 ± 80 nM		IC50 [2]: 990 ± 20 nM
